Results published in ChEMBL document CHEMBL3872258, “Challenges in the development of an M4 PAM in vivo tool compound: The discovery of VU0467154 and unexpected DMPK profiles of close analogs” (Bioorg Med Chem Lett, 2017).

Columns and labels:
[1] = Unbound fraction in rat brain; type: ADME, tissue-based; conditions: for fraction unbound: brain
Cytochrome P450 2D6 = Cytochrome P450 2D6 (Homo sapiens, UniProt P10635); test: Inhibition of CYP2D6 (unknown origin); type: ADME
[2] = molecular target: T1, Muscarinic acetylcholine receptor M2 (Rattus norvegicus, UniProt P10980); test: Binding affinity to rat M2 receptor by radio-ligand binding assay
T1 sequence (P10980 whole entry): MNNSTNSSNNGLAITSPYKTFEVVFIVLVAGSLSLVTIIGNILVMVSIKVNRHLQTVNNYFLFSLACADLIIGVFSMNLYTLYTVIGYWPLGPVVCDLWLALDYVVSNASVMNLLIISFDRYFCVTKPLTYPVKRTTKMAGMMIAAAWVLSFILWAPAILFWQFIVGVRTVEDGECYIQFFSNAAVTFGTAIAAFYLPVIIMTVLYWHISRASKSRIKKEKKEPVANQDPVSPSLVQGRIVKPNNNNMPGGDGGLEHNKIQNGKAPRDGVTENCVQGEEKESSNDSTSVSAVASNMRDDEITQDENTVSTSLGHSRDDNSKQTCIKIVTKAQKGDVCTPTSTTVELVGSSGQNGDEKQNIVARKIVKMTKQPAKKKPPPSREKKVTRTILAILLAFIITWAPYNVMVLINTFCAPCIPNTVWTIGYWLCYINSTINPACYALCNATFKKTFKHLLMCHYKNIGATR

[3] = Intrinsic clearance in human; type: ADME
Cytochrome P450 3A4 = Cytochrome P450 3A4 (Homo sapiens, UniProt P08684); test: Inhibition of CYP3A4 (unknown origin); type: ADME
[4] = molecular target: T2, Muscarinic acetylcholine receptor M1 (Rattus norvegicus, UniProt P08482); test: Binding affinity to rat M1 receptor by radio-ligand binding assay
T2 sequence (P08482 whole entry): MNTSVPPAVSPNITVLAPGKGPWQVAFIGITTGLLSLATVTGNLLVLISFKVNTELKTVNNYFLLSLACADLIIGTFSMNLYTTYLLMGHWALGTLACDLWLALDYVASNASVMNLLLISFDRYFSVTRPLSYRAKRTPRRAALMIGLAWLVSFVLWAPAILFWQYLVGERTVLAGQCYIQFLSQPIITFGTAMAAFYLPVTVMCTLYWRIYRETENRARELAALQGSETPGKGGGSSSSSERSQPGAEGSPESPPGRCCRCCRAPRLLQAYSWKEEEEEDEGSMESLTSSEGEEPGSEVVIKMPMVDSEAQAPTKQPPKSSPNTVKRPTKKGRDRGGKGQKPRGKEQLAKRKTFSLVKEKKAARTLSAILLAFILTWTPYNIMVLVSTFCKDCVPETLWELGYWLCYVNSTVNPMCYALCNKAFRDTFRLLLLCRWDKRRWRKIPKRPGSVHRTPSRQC

[5] = Half life in Sprague-Dawley rat at 1 mg/kg, iv; type: ADME, organism-based; conditions: in vivo; for half-life: Sprague-Dawley
[6] = molecular target: T3, Muscarinic acetylcholine receptor M5 (Homo sapiens, UniProt P08912); test: Binding affinity to human M5 receptor by radio-ligand binding assay
T3 sequence (P08912 whole entry): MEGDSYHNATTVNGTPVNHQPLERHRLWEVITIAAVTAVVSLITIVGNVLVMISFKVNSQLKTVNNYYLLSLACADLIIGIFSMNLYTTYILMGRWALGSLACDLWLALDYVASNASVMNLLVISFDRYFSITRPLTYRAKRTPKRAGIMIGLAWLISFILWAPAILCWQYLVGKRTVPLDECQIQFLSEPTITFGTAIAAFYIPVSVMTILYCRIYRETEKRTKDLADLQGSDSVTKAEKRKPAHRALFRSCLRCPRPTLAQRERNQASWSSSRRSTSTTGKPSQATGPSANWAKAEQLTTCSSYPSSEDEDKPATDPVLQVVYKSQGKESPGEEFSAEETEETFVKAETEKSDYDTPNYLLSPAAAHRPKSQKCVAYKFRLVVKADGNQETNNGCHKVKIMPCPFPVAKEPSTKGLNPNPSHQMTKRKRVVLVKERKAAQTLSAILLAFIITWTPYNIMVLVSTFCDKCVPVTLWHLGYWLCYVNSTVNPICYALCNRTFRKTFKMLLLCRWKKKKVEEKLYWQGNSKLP

[7] = molecular target: T4, Muscarinic acetylcholine receptor M5 (Rattus norvegicus, UniProt P08911); test: Binding affinity to rat M5 receptor by radio-ligand binding assay
T4 sequence (P08911 whole entry): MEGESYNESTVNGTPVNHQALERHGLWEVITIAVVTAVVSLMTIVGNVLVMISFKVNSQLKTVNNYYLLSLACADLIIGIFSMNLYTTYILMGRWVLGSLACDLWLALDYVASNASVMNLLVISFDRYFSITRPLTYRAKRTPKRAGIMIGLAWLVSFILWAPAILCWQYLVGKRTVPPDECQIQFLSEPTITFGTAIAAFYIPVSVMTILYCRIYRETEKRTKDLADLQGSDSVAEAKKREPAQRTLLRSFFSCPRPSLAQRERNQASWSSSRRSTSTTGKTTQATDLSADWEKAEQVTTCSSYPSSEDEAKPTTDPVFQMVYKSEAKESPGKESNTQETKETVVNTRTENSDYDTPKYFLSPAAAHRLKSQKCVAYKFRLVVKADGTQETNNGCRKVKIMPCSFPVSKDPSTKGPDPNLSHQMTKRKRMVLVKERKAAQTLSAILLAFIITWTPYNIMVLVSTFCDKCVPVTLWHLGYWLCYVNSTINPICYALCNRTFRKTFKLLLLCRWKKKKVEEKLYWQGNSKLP

Rattus norvegicus = test: Reversal of amphetamine-induced hyperlocomotion in Sprague-Dawley rat at 10 mg/kg, po administered 30 mins after habituation in the chamber followed by amphetamine injection measured for 60 mins; type: functional
[8] = Unbound fraction in human plasma; type: ADME, cell-free
Cytochrome P450 1A2 = molecular target: T5, Cytochrome P450 1A2 (Homo sapiens, UniProt P05177); test: Inhibition of CYP1A2 (unknown origin); type: ADME
T5 sequence (P05177 whole entry): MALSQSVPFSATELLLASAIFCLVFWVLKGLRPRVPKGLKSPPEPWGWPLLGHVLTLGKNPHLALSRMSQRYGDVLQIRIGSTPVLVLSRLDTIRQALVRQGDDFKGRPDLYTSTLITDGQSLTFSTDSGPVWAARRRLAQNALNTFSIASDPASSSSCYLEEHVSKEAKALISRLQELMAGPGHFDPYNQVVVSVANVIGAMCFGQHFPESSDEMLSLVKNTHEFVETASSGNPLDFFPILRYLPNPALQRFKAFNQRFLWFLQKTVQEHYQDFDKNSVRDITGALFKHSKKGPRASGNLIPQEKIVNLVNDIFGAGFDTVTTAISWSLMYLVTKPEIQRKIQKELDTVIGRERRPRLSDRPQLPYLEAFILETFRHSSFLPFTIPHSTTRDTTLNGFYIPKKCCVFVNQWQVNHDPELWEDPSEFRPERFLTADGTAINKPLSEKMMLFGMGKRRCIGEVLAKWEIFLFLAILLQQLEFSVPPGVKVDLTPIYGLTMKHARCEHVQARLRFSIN

Cytochrome P450 2D6, sequence (P10635 whole entry): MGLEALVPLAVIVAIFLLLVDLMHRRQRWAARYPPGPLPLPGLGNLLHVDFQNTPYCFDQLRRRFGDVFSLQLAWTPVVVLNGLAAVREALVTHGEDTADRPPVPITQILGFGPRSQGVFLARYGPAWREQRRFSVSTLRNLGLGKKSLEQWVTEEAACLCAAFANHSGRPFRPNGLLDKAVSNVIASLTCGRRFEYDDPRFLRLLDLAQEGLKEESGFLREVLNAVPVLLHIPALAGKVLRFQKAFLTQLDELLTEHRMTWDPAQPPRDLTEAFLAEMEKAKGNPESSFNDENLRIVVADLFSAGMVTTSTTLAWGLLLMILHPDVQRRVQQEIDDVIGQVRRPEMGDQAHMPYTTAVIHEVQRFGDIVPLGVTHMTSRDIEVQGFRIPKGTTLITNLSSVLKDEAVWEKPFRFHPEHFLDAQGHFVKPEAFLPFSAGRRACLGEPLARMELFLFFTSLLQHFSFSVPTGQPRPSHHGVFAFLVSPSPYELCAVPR
Cytochrome P450 3A4, sequence (P08684 whole entry): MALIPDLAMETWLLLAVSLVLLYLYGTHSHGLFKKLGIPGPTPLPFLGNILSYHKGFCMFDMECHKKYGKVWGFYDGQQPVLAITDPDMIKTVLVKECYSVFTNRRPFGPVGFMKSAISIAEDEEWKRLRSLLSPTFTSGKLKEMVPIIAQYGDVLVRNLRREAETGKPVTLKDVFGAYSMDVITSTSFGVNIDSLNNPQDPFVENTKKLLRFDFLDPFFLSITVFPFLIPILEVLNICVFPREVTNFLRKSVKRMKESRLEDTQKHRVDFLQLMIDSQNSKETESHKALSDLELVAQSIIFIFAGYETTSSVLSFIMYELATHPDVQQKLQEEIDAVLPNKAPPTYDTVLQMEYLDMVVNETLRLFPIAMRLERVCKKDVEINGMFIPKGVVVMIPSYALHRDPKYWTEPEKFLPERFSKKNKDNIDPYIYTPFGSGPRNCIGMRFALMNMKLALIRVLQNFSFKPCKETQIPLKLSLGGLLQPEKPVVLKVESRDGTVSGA

Structure (SMILES) | fraction unbound [1] | IC50 (Cytochrome P450 2D6) [µM] | EC50 [2] [µM] | CLint scaled [3] [mL/min/kg] | IC50 (Cytochrome P450 3A4) [µM] | EC50 [4] [µM] | half-life [5] [h] | EC50 [6] [µM] | EC50 [7] [µM] | Activity (Rattus norvegicus) [%] | Fu [8] | IC50 (Cytochrome P450 1A2) [µM] | Fu [1] | t1/2 [5] [h]
Cc1nnc2sc(C(=O)NCc3ccc(S(=O)(=O)C(F)F)cc3)c(N)c2c1C | 0.062 | 20.8 | > 30 | 15.6 | > 30 | > 30 | 2.4 | > 30 | > 30 | 49.3 | 0.053 | > 30 | – | –
Cc1nnc2sc(C(=O)NCc3ccc(S(=O)(=O)C(F)(F)F)cc3)c(N)c2c1C | – | > 30 | > 30 | 19.8 | > 30 | > 30 | – | > 30 | > 30 | 55.3 | 0.019 | > 30 | 0.067 | 5.7
Cc1nnc2sc(C(=O)NCc3ccc(S(F)(F)(F)(F)F)cc3)c(N)c2c1C | 0.004 | 23.9 | > 30 | 52.8 | > 30 | > 30 | 3.6 | > 30 | > 30 | 66.3 | 0.01 | > 30 | – | –
